Results on three molecules are retold here after patent US20090131444A1 (published 2009).

Structures can show the parent of a compound that is named as a salt.

For `COc1ccc2nccc(NC(=O)[C@@H]3CC[C@@H](NCc4cc5c(cn4)OCCO5)CO3)c2n1` (as salt: hydrochloride), the melting point was > 230 °C (dec.).
As to `COc1ccc2ncc(Cl)c(OC[C@@H]3CC[C@@H](NCc4cc5c(cn4)OCCO5)CO3)c2c1` (as salt: hydrochloride), the melting point was determined as 191 °C.
For `COc1ccc2ncc(Cl)c(NC(=O)[C@@H]3CC[C@@H](NCc4cc5c(cn4)OCCO5)CO3)c2c1` (as salt: hydrochloride) the value was 220 °C.

The melting point is the temperature of the solid-liquid transition.
